# Data reported in patent US20240209028A1, “CNP COMPOUNDS” (priority 2022, published 2024).
# Starred links: 1 amine or outer side, 2 acyl side, 3 side chain; linkers in the order of their positions; H or OH if unused. Positions of bridges follow the written chain, without caps; N, C: chain ends. Residues, ends and D or L forms follow the SMILES beside them. *: point of attachment. C18 diacid = O=C(O)CCCCCCCCCCCCCCCCC(=O)*; γGlu = O=C(O)[C@H](CCC(=O)[*:2])N[*:1]; X1 = O=C(CCCCCCCCCCCCCCCCc1nnn[nH]1)*; AEEA = NCCOCCOCC(=O)O
# Target: T1, human natriuretic peptide receptor 2 (hNPR2) (Homo sapiens, UniProt P20594)
# T1 construct: expressed in transfected cells; host or cells: HEK293 (ATCC CRL-1573), clone 35, co-transfected with pGloSensor-42F
# T1 sequence (P20594 23-1047): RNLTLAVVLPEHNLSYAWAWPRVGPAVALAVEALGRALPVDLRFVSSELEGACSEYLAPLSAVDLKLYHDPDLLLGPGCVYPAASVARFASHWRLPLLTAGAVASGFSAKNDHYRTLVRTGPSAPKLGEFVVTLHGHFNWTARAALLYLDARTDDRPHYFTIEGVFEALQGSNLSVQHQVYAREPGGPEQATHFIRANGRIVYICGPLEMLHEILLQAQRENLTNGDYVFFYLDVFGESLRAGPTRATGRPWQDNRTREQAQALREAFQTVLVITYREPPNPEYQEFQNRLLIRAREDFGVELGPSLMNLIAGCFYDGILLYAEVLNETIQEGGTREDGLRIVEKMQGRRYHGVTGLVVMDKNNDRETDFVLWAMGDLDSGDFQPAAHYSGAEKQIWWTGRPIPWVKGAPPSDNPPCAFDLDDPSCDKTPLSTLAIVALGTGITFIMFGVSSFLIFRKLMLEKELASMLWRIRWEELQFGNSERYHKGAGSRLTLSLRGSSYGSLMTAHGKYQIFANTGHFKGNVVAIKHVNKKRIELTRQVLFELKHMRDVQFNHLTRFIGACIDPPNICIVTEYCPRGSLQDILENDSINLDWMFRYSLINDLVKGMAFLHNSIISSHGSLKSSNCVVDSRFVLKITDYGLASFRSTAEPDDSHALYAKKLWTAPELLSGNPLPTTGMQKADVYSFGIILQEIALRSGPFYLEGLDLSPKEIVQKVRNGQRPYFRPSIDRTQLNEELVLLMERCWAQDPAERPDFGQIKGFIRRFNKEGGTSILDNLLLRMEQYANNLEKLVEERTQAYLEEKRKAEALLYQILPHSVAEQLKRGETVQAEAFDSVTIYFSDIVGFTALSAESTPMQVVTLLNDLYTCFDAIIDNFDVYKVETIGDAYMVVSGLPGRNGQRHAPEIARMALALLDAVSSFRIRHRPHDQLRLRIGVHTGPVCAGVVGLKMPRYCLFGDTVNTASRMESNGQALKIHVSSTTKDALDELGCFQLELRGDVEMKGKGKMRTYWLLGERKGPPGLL
# Experiment: In vitro hNPR2 activity assay (cGMP GloSensor reporter, HEK293)
# Assay type: cell-based
# Conditions: for hNPR2 0% HSA. [EC50% rel CNP]: potency relative to CNP22 (0065)
# Method in brief: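 Potency is the EC50 from a four-parameter logistic fit, also expressed relative to the in-plate CNP22 control (×100), with at least two replicates. Compounds (ten concentrations, […], HSA-free diluent with 1% OVA, 0.01% Tween20) were incubated 30 min at 37 °C on HEK293 cells co-expressing hNPR2 and a GloSensor cGMP luciferase. Luminescence detected with Bright-Glo.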
SMILES,hNPR2 0% HSA. [EC50% rel CNP],"EC50 (0% HSA, HEK293-hNPR2/GloSensor cells)"
CC[C@H](C)[C@@H]1NC(=O)[C@H](CCCNC(=N)N)NC(=O)[C@H](CC(=O)O)NC(=O)[C@H](CC(C)C)NC(=O)[C@@H]2CCCN2C(=O)[C@H](CC(C)C)NC(=O)CNC(=O)[C@H](Cc2ccccc2)NC(=O)[C@@H](NC(=O)CNC(=O)[C@H](CO)NC(=O)[C@H](CO)NC(=O)[C@@H](NC(=O)CNC(=O)[C@H](CCCCN)NC(=O)[C@H](CCCCN)NC(=O)[C@H](CCC(N)=O)NC(=O)[C@H](C)NC(=O)CNC(=O)[C@H](Cc2c[nH]cn2)NC(=O)[C@H](Cc2ccc(O)cc2)NC(=O)[C@H](CCCCN)NC(=O)[C@H](CCCNC(=N)N)NC(=O)[C@H](C)NC(=O)COCCOCCNC(=O)COCCOCCNC(=O)CC[C@H](NC(=O)CC[C@H](NC(=O)CC[C@H](NC(=O)CCCCCCCCCCCCCCCCC(=O)O)C(=O)O)C(=O)O)C(=O)O)C(C)C)CSSC[C@@H](C(=O)O)NC(=O)CNC(=O)[C@H](CC(C)C)NC(=O)CNC(=O)[C@H](CO)NC(=O)[C@H](CC(C)C)NC(=O)[C@H](CO)NC(=O)CNC1=O [compound 1422] ({C18 diacid-γGlu-γGlu-γGlu-AEEA-AEEA}-ARKYHGAQKKGVSSGCFGLPLDRIGSLSGLGC-OH; disulfide 16-32),75.3%,
CC[C@H](C)[C@@H]1NC(=O)[C@H](CCCNC(=N)N)NC(=O)[C@H](CCC(=O)O)NC(=O)[C@H](CC(C)C)NC(=O)[C@@H]2CCCN2C(=O)[C@H](CC(C)C)NC(=O)CNC(=O)[C@H](Cc2ccccc2)NC(=O)[C@@H](NC(=O)CNC(=O)[C@H](CCC(N)=O)NC(=O)[C@H](CO)NC(=O)[C@H](CC(C)C)NC(=O)CNC(=O)[C@H](CCCCN)NC(=O)[C@H](CCCCN)NC(=O)[C@H](CCC(N)=O)NC(=O)[C@H](C)NC(=O)CNC(=O)[C@H](CCCCN)NC(=O)[C@H](Cc2ccc(O)cc2)NC(=O)[C@H](CCCCN)NC(=O)[C@H](CCCNC(=N)N)NC(=O)[C@H](C)NC(=O)COCCOCCNC(=O)COCCOCCNC(=O)COCCOCCNC(=O)COCCOCCNC(=O)CC[C@H](NC(=O)CC[C@H](NC(=O)CC[C@H](NC(=O)CC[C@H](NC(=O)CC[C@H](NC(=O)CCCCCCCCCCCCCCCCC(=O)O)C(=O)O)C(=O)O)C(=O)O)C(=O)O)C(=O)O)CSSC[C@@H](C(=O)O)NC(=O)CNC(=O)[C@H](CC(C)C)NC(=O)CNC(=O)[C@H](CO)NC(=O)[C@H](CC(C)C)NC(=O)[C@H](CO)NC(=O)CNC1=O [compound 1477] ({C18 diacid-γGlu-γGlu-γGlu-γGlu-γGlu-AEEA-AEEA-AEEA-AEEA}-ARKYKGAQKKGLSQGCFGLPLERIGSLSGLGC-OH; disulfide 16-32),10.3%,0.13 nM
CC[C@H](C)[C@@H]1NC(=O)[C@H](CCCNC(=N)N)NC(=O)[C@H](CC(=O)O)NC(=O)[C@H](CC(C)C)NC(=O)[C@@H]2CCCN2C(=O)[C@H](CC(C)C)NC(=O)CNC(=O)[C@H](Cc2ccccc2)NC(=O)[C@@H](NC(=O)CNC(=O)[C@H](CCCCN)NC(=O)[C@H](CO)NC(=O)[C@H](CC(C)C)NC(=O)CNC(=O)[C@H](CCCCN)NC(=O)[C@H](CCCCN)NC(=O)[C@H](CCC(N)=O)NC(=O)[C@H](C)NC(=O)CNC(=O)[C@H](CCCCN)NC(=O)[C@H](Cc2ccc(O)cc2)NC(=O)[C@H](CCCCN)NC(=O)[C@H](CCCNC(=N)N)NC(=O)[C@H](C)NC(=O)[C@H](CCC(N)=O)NC(=O)[C@@H]2CCCN2C(=O)[C@H](Cc2c[nH]cn2)NC(=O)[C@H](CCC(=O)O)NC(=O)[C@H](CCC(N)=O)NC(=O)COCCOCCNC(=O)COCCOCCNC(=O)CC[C@H](NC(=O)CC[C@H](NC(=O)CC[C@H](NC(=O)CC[C@H](NC(=O)CC[C@H](NC(=O)CCCCCCCCCCCCCCCCC(=O)O)C(=O)O)C(=O)O)C(=O)O)C(=O)O)C(=O)O)CSSC[C@@H](C(=O)O)NC(=O)CNC(=O)[C@H](CC(C)C)NC(=O)CNC(=O)[C@H](CO)NC(=O)[C@H](CC(C)C)NC(=O)[C@H](CO)NC(=O)CNC1=O [compound 1474] ({C18 diacid-γGlu-γGlu-γGlu-γGlu-γGlu-AEEA-AEEA}-QEHPQARKYKGAQKKGLSKGCFGLPLDRIGSLSGLGC-OH; disulfide 21-37; C-terminus assumed),62.5%,
CC[C@H](C)[C@@H]1NC(=O)[C@H](CCCNC(=N)N)NC(=O)[C@H](CC(=O)O)NC(=O)[C@H](CC(C)C)NC(=O)[C@@H]2CCCN2C(=O)[C@H](CC(C)C)NC(=O)CNC(=O)[C@H](Cc2ccccc2)NC(=O)[C@@H](NC(=O)CNC(=O)[C@H](CCC(N)=O)NC(=O)[C@H](CO)NC(=O)[C@H](CC(C)C)NC(=O)CNC(=O)[C@H](CO)NC(=O)[C@H](CCCCN)NC(=O)[C@H](CCC(N)=O)NC(=O)[C@H](C)NC(=O)CNC(=O)[C@H](Cc2c[nH]cn2)NC(=O)[C@H](Cc2ccc(O)cc2)NC(=O)[C@H](CCCCN)NC(=O)[C@H](CCCNC(=N)N)NC(=O)[C@H](C)NC(=O)COCCOCCNC(=O)COCCOCCNC(=O)CC[C@H](NC(=O)CC[C@H](NC(=O)CCCCCCCCCCCCCCCCc2nnn[nH]2)C(=O)O)C(=O)O)CSSC[C@@H](C(=O)O)NC(=O)CNC(=O)[C@H](CC(C)C)NC(=O)CNC(=O)[C@H](CO)NC(=O)[C@H](CC(C)C)NC(=O)[C@H](CO)NC(=O)CNC1=O [compound 1426] ({X1-γGlu-γGlu-AEEA-AEEA}-ARKYHGAQKSGLSQGCFGLPLDRIGSLSGLGC-OH; disulfide 16-32),76.2%,
CC[C@H](C)[C@@H]1NC(=O)[C@H](CCCNC(=N)N)NC(=O)[C@H](CC(=O)O)NC(=O)[C@H](CC(C)C)NC(=O)[C@@H]2CCCN2C(=O)[C@H](CC(C)C)NC(=O)CNC(=O)[C@H](Cc2ccccc2)NC(=O)[C@@H](NC(=O)CNC(=O)[C@H](CO)NC(=O)[C@H](CO)NC(=O)[C@H](CC(C)C)NC(=O)CNC(=O)[C@H](CCCCN)NC(=O)[C@H](CCCCN)NC(=O)[C@H](CCC(N)=O)NC(=O)[C@H](C)NC(=O)CNC(=O)[C@H](CCC(=O)O)NC(=O)[C@H](Cc2ccc(O)cc2)NC(=O)COCCOCCNC(=O)COCCOCCNC(=O)CC[C@H](NC(=O)CCCCCCCCCCCCCCCCC(=O)O)C(=O)O)CSSC[C@@H](C(=O)O)NC(=O)CNC(=O)[C@H](CC(C)C)NC(=O)CNC(=O)[C@H](CO)NC(=O)[C@H](CC(C)C)NC(=O)[C@H](CO)NC(=O)CNC1=O [compound 1227] ({C18 diacid-γGlu-AEEA-AEEA}-YEGAQKKGLSSGCFGLPLDRIGSLSGLGC-OH; disulfide 13-29),38.2%,
CC[C@H](C)[C@@H]1NC(=O)[C@H](CCCNC(=N)N)NC(=O)[C@H](CC(=O)O)NC(=O)[C@H](CC(C)C)NC(=O)[C@@H]2CCCN2C(=O)[C@H](CC(C)C)NC(=O)CNC(=O)[C@H](Cc2ccccc2)NC(=O)[C@@H](NC(=O)CNC(=O)[C@H](CO)NC(=O)[C@H](CO)NC(=O)[C@@H](NC(=O)CNC(=O)[C@@H](NC(=O)[C@H](Cc2c[nH]cn2)NC(=O)[C@H](CCC(N)=O)NC(=O)[C@H](C)NC(=O)CNC(=O)[C@H](Cc2c[nH]cn2)NC(=O)[C@H](Cc2ccc(O)cc2)NC(=O)[C@H](CCCCN)NC(=O)[C@H](CCCNC(=N)N)NC(=O)[C@H](C)NC(=O)COCCOCCNC(=O)COCCOCCNC(=O)CC[C@H](NC(=O)CCCCCCCCCCCCCCCCC(=O)O)C(=O)O)[C@@H](C)O)C(C)C)CSSC[C@@H](C(=O)O)NC(=O)CNC(=O)[C@H](CC(C)C)NC(=O)CNC(=O)[C@H](CO)NC(=O)[C@H](CC(C)C)NC(=O)[C@H](CO)NC(=O)CNC1=O [compound 1351] ({C18 diacid-γGlu-AEEA-AEEA}-ARKYHGAQHTGVSSGCFGLPLDRIGSLSGLGC-OH; disulfide 16-32),55.2%,
CC[C@H](C)[C@@H]1NC(=O)[C@H](CCCNC(=N)N)NC(=O)[C@H](CC(=O)O)NC(=O)[C@H](CC(C)C)NC(=O)[C@@H]2CCCN2C(=O)[C@H](CC(C)C)NC(=O)CNC(=O)[C@H](Cc2ccccc2)NC(=O)[C@@H](NC(=O)CNC(=O)[C@H](CO)NC(=O)[C@H](CO)NC(=O)[C@H](CC(C)C)NC(=O)CNC(=O)[C@H](CCCCN)NC(=O)[C@H](CCCCN)NC(=O)[C@H](CCC(N)=O)NC(=O)[C@H](C)NC(=O)CNC(=O)[C@H](CCC(=O)O)NC(=O)[C@H](Cc2ccc(O)cc2)NC(=O)CNC(=O)CNC(=O)CNC(=O)COCCOCCNC(=O)COCCOCCNC(=O)CC[C@H](NC(=O)CCCCCCCCCCCCCCCCC(=O)O)C(=O)O)CSSC[C@@H](C(=O)O)NC(=O)CNC(=O)[C@H](CC(C)C)NC(=O)CNC(=O)[C@H](CO)NC(=O)[C@H](CC(C)C)NC(=O)[C@H](CO)NC(=O)CNC1=O [compound 1378] ({C18 diacid-γGlu-AEEA-AEEA}-GGGYEGAQKKGLSSGCFGLPLDRIGSLSGLGC-OH; disulfide 16-32),28.6%,
